Laboratory results reported in patent US6322962A, “Sterol-regulated Site-1 protease and assays of modulators thereof” (Board of Regents, The University of Texas System, priority 1999, dated 2001).
Square brackets hold non-standard residues; d marks the D form. Peptide text beside a SMILES is read from it. * marks the point of attachment. Sta = CC(C)C[C@H](N)[C@@H](O)CC(=O)O; AMC = Cc1cc(=O)oc2cc(N*)ccc12; Isovaleryl = CC(C)CC(=O)*; Nle = CCCC[C@H](N)C(=O)O

Columns and labels:
[1] = target: T1, purified S1P(983)-C (Cricetulus griseus, UniProt Q9Z2A8, T875N); test: Fluorogenic peptide assay for S1P activity (cleavage of MCA-conjugated peptides); format: biochemical, hamster; settings: for Relative Activity: Ac-VFRSLK-MCA set at 1.0; for cleavage of the peptide: result in words
T1 construct: Truncated S1P (amino acids 1-983); GGR linker (NotI site); made in house; host or cells: SRD-12B cells (mutant CHO cells lacking S1P) stably transfected with pCMV-S1P(983)-Myc-His (TR-3117, 'S1P(983) cells'); secreted into the medium and purified on Ni-NTA
T1 sequence (Q9Z2A8 187-983 T875N): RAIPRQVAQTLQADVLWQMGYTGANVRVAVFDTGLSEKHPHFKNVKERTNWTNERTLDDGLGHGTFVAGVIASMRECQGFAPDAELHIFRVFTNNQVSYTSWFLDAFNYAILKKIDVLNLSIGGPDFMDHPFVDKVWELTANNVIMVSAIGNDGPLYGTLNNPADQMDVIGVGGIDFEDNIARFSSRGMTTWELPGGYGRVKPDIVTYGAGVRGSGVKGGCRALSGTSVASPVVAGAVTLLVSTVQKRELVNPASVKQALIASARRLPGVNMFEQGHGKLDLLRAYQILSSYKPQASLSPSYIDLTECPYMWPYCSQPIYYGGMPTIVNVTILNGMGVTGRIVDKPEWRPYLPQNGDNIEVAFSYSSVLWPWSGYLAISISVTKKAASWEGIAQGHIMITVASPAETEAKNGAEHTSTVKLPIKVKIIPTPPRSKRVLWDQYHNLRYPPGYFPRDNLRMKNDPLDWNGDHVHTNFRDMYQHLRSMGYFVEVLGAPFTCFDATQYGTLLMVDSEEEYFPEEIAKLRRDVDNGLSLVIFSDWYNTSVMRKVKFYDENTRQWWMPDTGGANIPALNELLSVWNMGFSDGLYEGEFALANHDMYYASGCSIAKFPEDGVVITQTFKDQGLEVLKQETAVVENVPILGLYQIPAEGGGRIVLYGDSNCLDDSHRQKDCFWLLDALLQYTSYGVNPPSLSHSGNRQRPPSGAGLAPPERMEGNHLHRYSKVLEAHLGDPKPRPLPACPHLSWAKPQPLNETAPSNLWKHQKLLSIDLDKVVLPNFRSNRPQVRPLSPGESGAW
Procedure: (§1) Fluorogenic Peptide Assay for S1P Activity
S1P activity was measured fluorometrically with MCA-conjugated peptidyl substrates. Each reaction was carried out in 0.2 ml of assay buffer (25 mM Tris, 25 mM Mes, 25 mM acetic acid, and 1 mM CaCl2 adjusted to pH 8.0 with concentrated NaOH). Reactions contained MCA-peptide (final concentration 100 μM, added in 2 μl DMSO) and […] of purified S1P(983)-C. After incubation for 0.5-5 h at 37° C., each reaction was terminated by addition of 1 ml of ice-cold 5 mM sodium EDTA. The liberated 7-amino-4-methyl-coumarin (AMC) was measured with a Perkin-ElmerLS-30 luminescence spectrometer (360 nm excitation, 460 nm emission). A standard curve of fluorescence intensity was generated with different concentrations of AMC (Promega).
Similar substrates have been used to assay furin, prohormone convertases, and other subtilisin-related enzymes (Nakayama, 1997). […] The sequence of this peptide corresponds to the sequence at Site-B of S1P, which is known to be cleaved by S1P in an autocatalytic reaction. Fluorescence rose linearly with time for 5 h. […] This differs from the observations with furin and the prohormone convertases, whose pH optima are generally in the range of 6-7 (Nakayama, 1997).
The indicated fluorogenic peptide-MCA (100 μM) was incubated with 3 μg of purified S1P(983)-C at 37° C. for 5 h. The S1P activity of Ac-VFRSLK-MCA (SEQ ID NO:13, 930 pmol per min/mg protein) was set at 1.0, and the activity of the other substrates was expressed relative to this value. Each value represents the average of duplicate incubations, which varied from each other by <10%.

[2] = target: T1, purified S1P(983)-C; test: Effect of protease inhibitors on S1P(983)-C mediated cleavage of Ac-VFRSLK-MCA; format: biochemical, hamster; settings: for inhibition of S1P(983)-C: result in words
Procedure: as §1
S1P activity was measured fluorometrically with MCA-conjugated peptidyl substrates. […] After incubation for 0.5-5 h at 37° C., each reaction was terminated by addition of 1 ml of ice-cold 5 mM sodium EDTA. The liberated 7-amino-4-methyl-coumarin (AMC) was measured with a Perkin-ElmerLS-30 luminescence spectrometer (360 nm excitation, 460 nm emission). A standard curve of fluorescence intensity was generated with different concentrations of AMC (Promega).

[3] = 100 μM peptide-MCA, 3 μg S1P(983)-C, 37° C., 5 h
[4] = 0.1 mM, 100 μM Ac-VFRSLK-MCA, 37° C., 5 h
[5] = 1 mM, 100 μM Ac-VFRSLK-MCA, 37° C., 5 h
[6] = 10 mM, 100 μM Ac-VFRSLK-MCA, 37° C., 5 h
[7] = pH 8, 0.1 mM, 100 μM Ac-VFRSLK-MCA, 37° C., 5 h, read-out: AMC Liberated, % control
[8] = pH 8, 1 mM, 100 μM Ac-VFRSLK-MCA, 37° C., 5 h, read-out: AMC Liberated, % control
[9] = pH 8, 10 mM, 100 μM Ac-VFRSLK-MCA, 37° C., 5 h, read-out: AMC Liberated, % control
[10] = 3 mM, 100 μM Ac-VFRSLK-MCA, 37° C., 5 h
[11] = pH 8, 3 mM, 100 μM Ac-VFRSLK-MCA, 37° C., 5 h, read-out: AMC Liberated, % control
[12] = 0.0003 mM, 100 μM Ac-VFRSLK-MCA, 37° C., 5 h

CC(=O)N[C@@H](CO)C(=O)NCC(=O)N[C@@H](CO)C(=O)NCC(=O)N[C@@H](CCCNC(=N)N)C(=O)N[C@@H](CO)C(=O)N[C@H](C(=O)N[C@@H](CC(C)C)C(=O)Nc1ccc2c(C)cc(=O)oc2c1)C(C)C (Ac-SGSGRSVL-{AMC})
Relative Activity [1, 3]: < 0.1

O[C@H](CS)[C@H](O)CS (racemic) [Dithiothreitol]
AMC Liberated [2, 4]: 615 pmol/tube
AMC Liberated [2, 5]: 323 pmol/tube
AMC Liberated [2, 6]: 99 pmol/tube
remaining activity at 100 µM [2, 7]: 73%
remaining activity at 1000 µM [2, 8]: 38%
remaining activity at 10000 µM [2, 9]: 12%

c1cnc2c(c1)ccc1cccnc12 [1,10-Phenanthroline, 1,10-phenanthroline]
AMC Liberated [2, 10]: 361 pmol/tube
AMC Liberated [2, 6]: 253 pmol/tube
remaining activity at 3000 µM [2, 11]: 43%
remaining activity at 10000 µM [2, 9]: 30%
inhibition of S1P(983)-C [2]: partially inhibited

CCCC[C@@H](C=O)NC(=O)[C@H](CC(C)C)NC(=O)[C@H](CC(C)C)NC(C)=O [ALLN, N-acetyl-leucinal-leucinal-norleucinal] (Ac-Leu-Leu-[Nle]-aldehyde)
AMC Liberated [2, 4]: 811 pmol/tube
remaining activity at 100 µM [2, 7]: 97%
inhibition of S1P(983)-C [2]: resistant

N=C(N)c1ccc(CS(=O)(=O)F)cc1 [APMSF, (4-amidinophenyl)-methancsulfonyl fluoride]
AMC Liberated [2, 5]: 793 pmol/tube
AMC Liberated, % control [2, 5]: 95 % control
inhibition of S1P(983)-C [2]: resisted

CC(=O)N[C@@H](CCCNC(=N)N)C(=O)N[C@@H](CO)C(=O)N[C@@H](CC(C)C)C(=O)N[C@@H](CCCCN)C(=O)Nc1ccc2c(C)cc(=O)oc2c1 [Ac-RSLK-MCA, Ac-Arg-Ser-Leu-Lys-MCA] (Ac-RSLK-{AMC})
Relative Activity [1, 3]: 0.47
cleavage of the peptide [1]: cleaves

CC(=O)N[C@@H](CO)C(=O)NCC(=O)N[C@@H](CCCNC(=N)N)C(=O)N[C@@H](CO)C(=O)N[C@H](C(=O)N[C@@H](CC(C)C)C(=O)Nc1ccc2c(C)cc(=O)oc2c1)C(C)C [Ac-SGRSVL-MCA, Ac-Ser-Gly-Arg-Ser-Val-Leu-MCA] (Ac-SGRSVL-{AMC})
Relative Activity [1, 3]: < 0.1
cleavage of the peptide [1]: did not cleave

CC(=O)N[C@H](C(=O)N[C@@H](Cc1ccccc1)C(=O)N[C@@H](C)C(=O)N[C@@H](CO)C(=O)N[C@@H](CC(C)C)C(=O)N[C@@H](CCCCN)C(=O)Nc1ccc2c(C)cc(=O)oc2c1)C(C)C [Ac-VFASLK-MCA, Ac-Val-Phe-Ala-Ser-Leu-Lys-MCA] (Ac-VFASLK-{AMC})
Relative Activity [1, 3]: < 0.1
cleavage of the peptide [1]: no detectable cleavage

CC(=O)N[C@H](C(=O)N[C@@H](Cc1ccccc1)C(=O)N[C@@H](CCCNC(=N)N)C(=O)N[C@@H](CO)C(=O)N[C@@H](CC(C)C)C(=O)N[C@@H](CCCCN)C(=O)Nc1ccc2c(C)cc(=O)oc2c1)C(C)C [Ac-VFRSLK-MCA, Ac-Val-Phe-Arg-Ser-Leu-Lys-MCA] (Ac-VFRSLK-{AMC})
S1P activity [1, 3]: 930 pmol per min/mg protein
Relative Activity [1, 3]: 1.0
cleavage at pH 6 ([1]; pH 6): very little cleavage
pH of maximal rate of cleavage ([1]; pH curve, FIG. 22C): 8 pH
time over which fluorescence rose linearly ([1]; purified secreted S1P(983)-C, 37° C.): 5 h

CC(=O)N[C@H](C(=O)N[C@@H](Cc1ccccc1)C(=O)N[C@@H](CCCNC(=N)N)C(=O)N[C@@H](CO)C(=O)N[C@@H](CCCNC(=N)N)C(=O)N[C@@H](CCCNC(=N)N)C(=O)Nc1ccc2c(C)cc(=O)oc2c1)C(C)C [Ac-VFRSRR-MCA, Ac-Val-Phe-Arg-Ser-Arg-Arg-MCA] (Ac-VFRSRR-{AMC})
Relative Activity [1, 3]: < 0.1
cleavage of the peptide [1]: did not cleave

O=C(O)CN(CCOCCOCCN(CC(=O)O)CC(=O)O)CC(=O)O [EGTA]
AMC Liberated [2, 10]: 609 pmol/tube
AMC Liberated ([2]; 30 mM, 100 μM Ac-VFRSLK-MCA, 37° C., 5 h): 305 pmol/tube
remaining activity at 3000 µM [2, 11]: 73%
remaining activity at 30000 µM ([2]; pH 8, 30 mM, 100 μM Ac-VFRSLK-MCA, 37° C., 5 h, read-out: AMC Liberated, % control): 36%
inhibition of S1P(983)-C [2]: partially inhibited

CC(=O)N[C@@H](CC(C)C)C(=O)N[C@@H](CC(C)C)C(=O)N[C@H](C=O)CCCNC(=N)N [Leupeptin]
AMC Liberated [2, 5]: 754 pmol/tube
remaining activity at 1000 µM [2, 8]: 90%
inhibition of S1P(983)-C [2]: resistant

O=S(=O)(F)Cc1ccccc1 [PMSF, phenylmethylsulfonyl fluoride]
AMC Liberated [2, 5]: 853 pmol/tube
AMC Liberated, % control [2, 5]: 102 % control
AMC Liberated [2, 6]: 690 pmol/tube
AMC Liberated, % control [2, 6]: 82 % control
inhibition of S1P(983)-C [2]: resisted

NCCc1ccc(S(=O)(=O)F)cc1 [Pefabloc ®]
AMC Liberated [2, 5]: 731 pmol/tube
AMC Liberated, % control [2, 5]: 87 % control
AMC Liberated [2, 10]: 366 pmol/tube
AMC Liberated, % control [2, 10]: 44 % control
AMC Liberated [2, 6]: 60 pmol/tube
AMC Liberated, % control [2, 6]: 7 % control
inhibition of S1P(983)-C [2]: inhibited by high concentrations

CC(C)CC(=O)N[C@H](C(=O)N[C@H](C(=O)N[C@@H](CC(C)C)[C@@H](O)CC(=O)N[C@@H](C)C(=O)N[C@@H](CC(C)C)[C@@H](O)CC(=O)O)C(C)C)C(C)C [Pepstatin] (Isovaleryl-VV[Sta]A[Sta]-OH)
AMC Liberated ([2]; 0.01 mM, 100 μM Ac-VFRSLK-MCA, 37° C., 5 h): 798 pmol/tube
remaining activity at 10 µM ([2]; pH 8, 0.01 mM, 100 μM Ac-VFRSLK-MCA, 37° C., 5 h, read-out: AMC Liberated, % control): 95%
inhibition of S1P(983)-C [2]: resistant

Aprotinin
AMC Liberated [2, 12]: 745 pmol/tube
AMC Liberated, % control [2, 12]: 89 % control
inhibition of S1P(983)-C [2]: resistant

calcium
calcium concentrations at which the reaction was inhibited [2]: above 3 mM
effect of omission of calcium on the enzyme reaction ([2]; omission during purification and in the assay buffer): not affected
